Measured values taken from ChEMBL document CHEMBL1781904, “Absolute configuration and selective trypanocidal activity of gaudichaudianic acid enantiomers” (J Nat Prod, 2011).

These compounds were tested on Trypanosoma cruzi (assay: Trypanocidal activity against Trypanosoma cruzi Y epimastigotes after 72 hrs by MTT assay). Details: not given.
Assay type: functional, organism-based

Q: For CC(C)=CCCC1(C)C=Cc2cc(C(=O)O)cc(CC=C(C)C)c2O1 (stereo in doubt; 1) [GAUDICHAUDIANIC ACID], which IC50 is on record?
A: 55.8 µM

Q: CC(C)=CCCC1(C)C=Cc2cc(C(=O)O)cc(CC=C(C)C)c2O1 (racemic; form 1) [GAUDICHAUDIANIC ACID] was tested. Which IC50 did it give?
A: 111 µM

Q: For CC(C)=CCCC1(C)C=Cc2cc(C(=O)O)cc(CC=C(C)C)c2O1 (racemic; form 2) [GAUDICHAUDIANIC ACID], which IC50 is on record?
A: 197 µM

Same assay, conditions: Trypanosoma cruzi, Y, 72 h

Q: Which IC50 does the source give for O=C(Cn1ccnc1[N+](=O)[O-])NCc1ccccc1 [BENZNIDAZOLE] here?
A: 37.3 µM

Q: How did the IC50 turn out when CC(C)=CCC[C@]1(C)C=Cc2cc(C(=O)O)cc(CC=C(C)C)c2O1 was run?
A: 224 µM

Q: CC(C)=CCC[C@@]1(C)C=Cc2cc(C(=O)O)cc(CC=C(C)C)c2O1 was tested. Which IC50 did it give?
A: 176 µM
